According to patent US5030760A, “Tetrahydrophthalimides, and their production and use” (Sumitomo Chemical Company, Ltd., priority 1981, dated 1991):

What was measured:
Conditions in all cases: 3 weeks
[1] = test system: barnyardgrass; experiment: Test Example 7, flooded paddy pot dripping, herbicidal activity; assay type: in vivo, Echinochloa crus-galli
Protocol: (§1) The application of the tetrahydrophthalimides (I) as herbicides will be illustratively shown in the following Examples wherein the phytotoxicity to cultivated plants and the herbicidal activity on weeds were evaluated as follows: the aerial parts of the test plants were cut off and weighed (fresh weight); the percentage of the fresh weight of the treated plant to that of the untreated plant was calculated with the latter fresh weight taken as 100; and the crop damage and the herbicidal activity were evaluated by the standard given in the table below. The rating values of phytotoxicity, 0 and 1, and those of herbicidal effect, 5 and 4, are generally regarded as satisfactory to protect cultivated plants and control weeds, respectively. The rating values in the paddy field test alone were calculated from the dry weight of the test plants.
(§2) Wagner's pots (1/5000 are) were filled with paddy field soil and water was poured therein to make a flooded condition. Rice seedlings of the 3-leaf stage were transplanted and tubers of slender spikerush and arrowhead and the seeds of barnyardgrass, monochoria and broad-leaved weed were sowed therein and grown for 5 days. When germination occurs, a designed amount of the test compound formulated into an emulsifiable concentrate according to Preparation Example 2 was applied to the pots by dripping. The test plants were grown for a further 3 weeks, and herbicidal activity and phytotoxicity were examined. The herbicidal activity was evaluated in figures ranging from 0 to 5. The phytotoxicity to the crop plants was also indicated on the same standard as that of the herbicidal activity.

[2] = test system: arrowhead; experiment: as above; assay type: in vivo, Sagittaria pygmaea
Protocol: as §1, §2

[3] = test system: rice plant; experiment: Test Example 7, flooded paddy pot dripping, phytotoxicity to rice plant; assay type: in vivo
Protocol: as §1, §2

[4] = test system: monochoria; experiment: Test Example 7, flooded paddy pot dripping, herbicidal activity; assay type: in vivo, Monochoria vaginalis
Protocol: as §1, §2
Further: ranges in brackets are in %.

O=C1C2=C(CCCC2)C(=O)N1c1ccc(Cl)cc1F [A, 2-fluoro-4-chlorophenyltetrahydrophthalimide, reference compound]
Herbicidal activity, Barnyardgrass ([1]; 2.5 g/are): 1 (10-29) | Herbicidal activity, Barnyardgrass ([1]; 5 g/are): 3 (50-69) | Herbicidal activity, Barnyardgrass ([1]; 10 g/are): 4 (70-89) | Herbicidal activity, Allowhead ([2]; 2.5 g/are): 2 (30-49) | Herbicidal activity, Allowhead ([2]; 5 g/are): 3 (50-69) | Herbicidal activity, Allowhead ([2]; 10 g/are): 3 (50-69) | Phytotoxicity, Rice plant ([3]; 2.5 g/are): 1 (10-29) | Phytotoxicity, Rice plant ([3]; 5 g/are): 1 (10-29) | Phytotoxicity, Rice plant ([3]; 10 g/are): 2 (30-49) | Herbicidal activity, Monochoria ([4]; 2.5 g/are): 4 (70-89) | Herbicidal activity, Monochoria ([4]; 5 g/are): 5 (90-100) | Herbicidal activity, Monochoria ([4]; 10 g/are): 5 (90-100)
